Reference: patent publication US20060264423A1 (BIOENVISION, INC., priority 2005, published 2006)
Where two headings read alike, the source gives them in different places.

How the values were obtained:
Herpes B = conditions: cited from earlier work
[1] = in vivo; cited from earlier work
[2] = sheep; doses as high as 50 mg/kg; cited from earlier work
[3] = in vivo; cited from earlier work; remark: listed apart in the source
[4] = cited from earlier work
[5] = sheep; cited from earlier work
[6] = in vivo; cited from earlier work; remark: listed apart in the source
hepatitis C, genotype 4 = experiment: Open label clinical trial of oral methylene blue, reduction in hepatitis C viral load measured by PCR
[7] = in vivo; cited from earlier work; remark: listed apart in the source
chronic hepatitis B or C = conditions: patients with chronic hepatitis B or C; cited from earlier work
[8] = at 50 days, of the 23 responders

Which “sensitivity of the virus in vitro” value (Herpes B) does the source give for `Nc1nc2c(ncn2COCCO)c(=O)[nH]1` [Acyclovir] here?
The value was “sensitive”.

For `Nc1nc(O)c2ncn(COC(CO)CO)c2n1` [Ganciclovir], which “sensitivity of the virus in vitro” value (Herpes B) is on record?
The value was “sensitive”.

Which “oral bioavailability superior to that of oral acyclovir” value [1] does the source give for `CC(C)[C@H](N)C(=O)OCCOCn1cnc2c(=O)[nH]c(N)nc21` [Valaciclovir] here?
Its value is 3-5 times.

With `CC(=O)OCC(CCn1cnc2cnc(N)nc21)COC(C)=O` [famciclovir] as the compound, how does the “oral bioavailability superior to that of oral acyclovir” value [1] read?
The value was 3-5 times.

With `CN(C)c1ccc2nc3ccc(N(C)C)cc3[s+]c2c1` [methylene blue, 3,7-Bis(dimethylamino)-phenothiazin-5-ium chloride] as the compound, how does the methemoglobin production [2] read?
Its methemoglobin production is “minimal methemoglobin production”.

What about the “oral absorption (range)” value [3] of the same compound?
The value was 55% to 97.

What about the side effects ([4]; adult humans, one week to 19 months, 100 mg b.i.d. or t.i.d. orally or 100 mg intravenously) of the same compound?
The side effects was “minimal side effects”.

What about the side effects ([4]; recommended dose 50 to 300 mg by mouth, 1 to 4 mg/kg intravenously) of the same compound?
Its side effects is “blue urine, occasional nausea, anemia and fever”.

What about the “overall elimination rate constant” value [5] of the same compound?
Its value is 0.0076 ± 0.0016 min⁻¹.

What about the “crossing of the blood-milk barrier” value [6] of the same compound?
The value was “crosses the blood-milk barrier easily”.

And the “decrease in viral count” value (hepatitis C, genotype 4; 23 patients (of 25, genotype 4), at 50 days)?
The value was 70-100%.

What about the non-responders (hepatitis C, genotype 4; at 50 days, 25 patients, genotype 4) of the same compound?
The non-responders was “Two”.

And the “responders with between 0.7-1 log reduction in viral load” value (hepatitis C, genotype 4; [8])?
Its value is 12 (52%) patients (%).

What about the “responders with between 1-2 log reduction in viral load” value (hepatitis C, genotype 4; [8]) of the same compound?
Its value is 6 (26%) patients (%).

And the “responders with viral clearance” value (hepatitis C, genotype 4; [8])?
Its value is 5 (22%) patients (%).

What about the “drop in viral load” value (hepatitis C, genotype 4; interim results, 8 of 9 patients, within the first 50 days) of the same compound?
The value was 62%-100.

And the “patients with between greater than or equal to 0.6 log to less than or equal to 1 log reduction in viral load” value (hepatitis C, genotype 4; interim results, first 9 patients, 50 days of treatment)?
Its value is 89%.

What about the “patients with a greater than or equal to two log reduction in viral load” value (hepatitis C, genotype 4; interim results, first 9 patients, 50 days of treatment, 65 mg twice daily oral) of the same compound?
Its value is 33%.

And the “efficacy in treating hepatitis C (conclusion)” value (hepatitis C, genotype 4; overall conclusion of the trial results)?
The value was “highly efficacious”.

What about the “absorption from the GI tract” value [7] of the same compound?
The value was “absorbed well”.

For Interferon alpha, which “patients in whom treatment is effective” value (chronic hepatitis B or C) is on record?
Its value is 25-30%.
